# Patent US11541029B2, “High penetration compositions and their applications” (Techfields Pharma Co., Ltd., priority 2008, dated 2023)
# Key:
# [1] = system: Human Gastric Cancer HGC-27 cell; experiment: HGC-27 cell proliferation, MTT assay; type: cell-based; conditions: Homo sapiens, HGC-27, 72 hours, read-out: HGC-27 cell growth inhibition rate
# Experimental: The inhibition of cellular proliferation was measured by the modified dimethyl thiazolyl diphenyl tetrazolium salt (MTT) [3-(4,5-dimethylthiazol-2-yl)-2,5-diphenyltetrazolium bromide] assay, based on the ability of live cells to converting thiazolyl blue to dark blue formazan. Approximately 3500 cells of HGC-27 (in 100 μl culture solution) were seeded into 96-well culture plates and were cultured for 16 hours at 37° C. Different concentration solution (100 μl) of Taxol (positive control), chlorambucil, or N,N-diethylaminoethyl 4-[bis(2-chloroethyl)amino]benzenebutyrate.HCl salt (HPC of chlorambucil) were added and incubation continued for 72 hours at 37° C. Then MTT were added and incubation continued at 37° C. for 4 h, and 100 μl DMSO was pipetted to solubilize the formazan product for 30 min at room temperature. The absorbency at 570 nm was measured using Bio-Rad micro-plate reader […].
# [2] = system: human myeloma cell line implanted into mice; experiment: Survival of mice with multiple myeloma (Example 110, Study B); type: in vivo; conditions: n=5
# Experimental: Study B: For evaluation of antitumor activity, a human myeloma cell line derived from the ascites of a patient with multiple myeloma was implanted into mice. The experiment was carried out on 17 groups of mice. Control group (A, orally), chlorambucil (group B1: 1 mg/kg, orally, group B2, 3 mg/kg, orally, group B3:1 mg/kg, transdermally, and group B4: 3 mg/kg, transdermally), melphalan (group C1: 1 mg/kg, orally, group C2, 3 mg/kg, orally, group C3:1 mg/kg, transdermally, and group C4: 3 mg/kg, transdermally), N,N-diethylaminoethyl 4-[bis(2-chloroethyl)amino]benzenebutyrate.HBr (the HPC of chlorambucil (group D1: 1 mg/kg, orally, group D2, 3 mg/kg, orally, group D3:1 mg/kg, transdermally, and group D4: 3 mg/kg, transdermally), and 4-[bis(2-chloroethyl)amino]-N-acetyl-L-phenylalanine N,N-diethylaminoethyl ester hydrobromide (the HPC of melphalan) (group E1: 1 mg/kg, orally, group E2, 3 mg/kg, orally, group E3:1 mg/kg, transdermally, and group E4: 3 mg/kg, transdermally).
# [3] = system: human myeloma cell line implanted into mice; experiment: Survival and weight loss of myeloma mice (Example 111); type: in vivo; conditions: orally; for Weight Loss: day 21; for Life Elongation Rate / None Disease Rate / Survival Period: n=7
# Description: A human myeloma cell line derived from the ascites of a patient with multiple myeloma was implanted into mice. The mice was divided into 11 groups: control group (A, orally), melphalan (B1 and B2, orally), chlorambucil (C1 and C2, orally), N,N-diethylaminoethyl 4-[bis(2-chloroethyl)amino]benzenebutyrate.HBr (D1 and D2, transdermally), 4-[bis(2-chloroethyl)amino]-N-acetyl-L-phenylalanine N,N-diethylaminoethyl ester hydrobromide (E1 and E2, transdermally in 5% aqueous solution), and diethylaminoethyl 4-[bis(2-methylsulfonylethyl)amino]benzenebutyrate.HCl (F1 and F2, transdermally in 5% aqueous solution). The body weight loss of mice was determined on day 21.
# [4] = system: GK rats (SLAC/GK, type 2 diabetes); experiment: Anti-diabetes (type II) activity of HPCs of NSAIAs in GK rats; type: in vivo; conditions: 30 mg/kg transdermally once per day, no fasting
# Experimental: (§1) A HPC in the present disclosure lowered blood glucose levels in rat models (SLAC/GK, type 2 diabetes, n=7). 30 mg/kg of 8% diethylaminoethyl acetylsalicylate.HCl salt (P-1, in 25% ethanol); 4-acetamidophenyl salicylyldimethylaminobutyrate.HCl (P-6, in 25% ethanol), diethylaminoethyl 5-(2,4-difluorophenyl)acetylsalicylate.5-(2,4-difluorophenyl)acetylsalicylic acid salt (P-8, in 25% ethanol), diethylaminoethyl salicylsalicylate.HCl salt (P-9, in 25% ethanol), diethylaminoethyl salicylate.AcOH(P-10, in 25% ethanol), diethylaminoethyl 5-acetamido-acetylsalicylate.HCl(P-58, in 25% ethanol), diethylaminoethyl acetylsalicylsalicylate. HCl salt (P-59, in 25% ethanol), diethylaminoethyl acetylsalicylsalicylsalicylate. HCl salt (P-60, in 25% ethanol) were administered transdermally to the backs (6 cm^2, fur was shaved) of GK rats (SLAC/GK, 14-16 weeks old) and normal SD rats (SLAC/SD, 14-16 weeks old) once per day (at 8 am) for 6 weeks.
# (§2) The blood glucose levels were measured once every 3 days at 4:30 pm (no fasting) from the third week to the sixth week as shown in Table 10a and 10b. […] Moreover, the blood glucose levels of the rats stayed at normal level (6-9 mmol/L, no fasting) after the treatment was stopped for 40 days.
# [5] = system: normal SD rats (SLAC/SD); experiment: Blood glucose in normal SD rats treated with HPCs of NSAIAs; type: in vivo; conditions: 30 mg/kg transdermally once per day, no fasting
# Experimental: as §1, §2
# [6] = system: SLAC/DB/DB obese mice; experiment: Blood glucose and blood lipid levels in DB/DB mice; type: in vivo; conditions: 30 mg/kg transdermally once per day
# Experimental: HPCs in the present disclosure lowered blood glucose levels and blood lipid levels in mice models (SLAC/DB/DB, obese mice, n=7). 30 mg/kg of 8% diethylaminoethyl acetylsalicylate.HCl salt (P-1, in 25% ethanol); 4-acetamidophenyl salicylyldimethylaminobutyrate.HCl (P-6, in 25% ethanol), diethylaminoethyl 5-(2,4-difluorophenyl)acetylsalicylate.5-(2,4-difluorophenyl)acetylsalicylic acid salt (P-8, in 25% ethanol), diethylaminoethyl salicylsalicylate.HCl salt (P-9, in 25% ethanol), diethylaminoethyl salicylate.AcOH(P-10, in 25% ethanol), diethylaminoethyl 5-acetamido-acetylsalicylate.HCl(P-58, in 25% ethanol), diethylaminoethyl acetylsalicylsalicylate.HCl salt (P-59, in 25% ethanol), diethylaminoethyl acetylsalicylsalicylsalicylate.HCl salt (P-60, in 25% ethanol) were administered transdermally to the backs (4 cm^2,fur was shaved) of DB/DB mice(SLAC/DB/DB, 10-12 weeks old) once per day (at 8 am) for 5 weeks. The blood glucose levels were measured once per week and blood lipid levels were measured once every other week.
# [7] = system: SLAC:NOD-IDDM, type 1 diabetes; experiment: Anti-diabetes (type I) activity of HPCs of NSAIAs; type: in vivo, mice; conditions: for blood glucose, Baseline: equal to 20 mg/kg of NSAIAs transdermally twice per day for 7 weeks; for blood glucose, Average: fourth week to seventh week, no fasting, equal to 20 mg/kg of NSAIAs transdermally twice per day
# Description: 10% aqueous solution of diethylaminoethyl acetylsalicylate.acetylsalicylic acid salt (P-1, […]); 4-acetamidophenyl salicylyldimethylaminobutyrate. HCl (P-6), diethylaminoethyl 5-(2,4-difluorophenyl)acetylsalicylate.5-(2,4-difluorophenyl)acetylsalicylic acid salt (P-8), diethylaminoethyl salicylsalicylate.AcOH(P-9), diethylaminoethyl 5-acetamido-acetylsalicylate. HCl (P-58), diethylaminoethyl 2-(ρ-isobutylphenyl) propionate.citric acid (P-59), diethylaminoethyl acetylsalicylsalicylate. acetylsalicylsalicylsalicylic acid salt (P-60) (equal to of 20 mg/kg of NSAIAs) were administered transdermally to the shaved back (about 1.5 cm^2) of mice twice per day (at 8 am and 5 pm) for 7 weeks.
# The blood glucose levels were measured once every 3 days at 4:30 pm (no fasting) from the fourth week to the seventh week as shown in Table 11.
structure (smiles),measurement,setting,value
"O=C(O)CCCc1ccc(N(CCCl)CCCl)cc1 [chlorambucil, reference compound]",inhibition at 0.5 µM,[1]; 0.5 μM,0.3%
same,inhibition at 2 µM,[1]; 2.0 μM,1.6%
same,inhibition at 5 µM,[1]; 5.0 μM,12.5%
same,inhibition at 25 µM,[1]; 25 μM,31.5%
same,inhibition at 50 µM,[1]; 50 μM,39.4%
same,inhibition at 75 µM,[1]; 75 μM,41.5%
same,inhibition at 100 µM,[1]; 100 μM,53.1%
same,inhibition at 200 µM,[1]; 200 μM,62.1%
same,inhibition at 500 µM,[1]; 500 μM,81%
same,Life Elongation Rate,"[2]; 1 mg/kg per day, orally",107%
same,Survival Period,"[2]; 1 mg/kg per day, orally",48.7 ± 5.3 days
same,Life Elongation Rate,"[2]; 1 mg/kg per day, transdermally",99%
same,Survival Period,"[2]; 1 mg/kg per day, transdermally",46.1 ± 3.6 days
same,Life Elongation Rate,"[2]; 3 mg/kg per day, orally",151%
same,Survival Period,"[2]; 3 mg/kg per day, orally",68.5 ± 4.2 days
same,Life Elongation Rate,"[2]; 3 mg/kg per day, transdermally",98%
same,Survival Period,"[2]; 3 mg/kg per day, transdermally",44.6 ± 3.6 days
same,Weight Loss,[3]; 1.5 mg/kg per day,10%
same,Life Elongation Rate,[3]; 1.5 mg/kg per day,126%
same,None Disease Rate,[3]; 1.5 mg/kg per day,2/7
same,Survival Period,[3]; 1.5 mg/kg per day,54.8 ± 5.5 days
same,Weight Loss,[3]; 3 mg/kg per day,17%
same,Life Elongation Rate,[3]; 3 mg/kg per day,200%
same,None Disease Rate,[3]; 3 mg/kg per day,3/7
same,Survival Period,[3]; 3 mg/kg per day,87.2 ± 6.9 days
"CC(=O)Nc1ccc(OC(=O)c2ccccc2OC(=O)CCCN(C)C)cc1.Cl [P-6, 4-acetamidophenyl salicylyldimethylaminobutyrate.HCl]","blood glucose, Average (Week 2-5)",[4],9.2 ± 2.7 mmol/L
same,"blood glucose, Day 1",[4],16.8 ± 3.0 mmol/L
same,"blood glucose, Average (Week 2-5)",[5],5.8 ± 1.1 mmol/L
same,"blood glucose, Day 1",[5],5.7 ± 1.3 mmol/L
same,"Cholesterol (total), Day 1",[6],7.0 ± 0.4 mmol/L
same,"Cholesterol (total), Week 5",[6],4.9 ± 0.5 mmol/L
same,"Triglycerides, Day 1",[6],4.4 ± 0.5 mmol/L
same,"Triglycerides, Week 5",[6],2.5 ± 0.3 mmol/L
same,"blood glucose, Day 1",[6],14.2 ± 2.0 mmol/L
same,"blood glucose, Week 5",[6],9.5 ± 2.8 mmol/L
same,"blood glucose, Baseline",[7],18.9 ± 4.3 mmol/L
same,"blood glucose, Average",[7],9.5 ± 2.1 mmol/L
"CC(=O)Oc1ccc(-c2ccc(F)cc2F)cc1C(=O)O.CCN(CC)CCOC(=O)c1cc(-c2ccc(F)cc2F)ccc1OC(C)=O [P-8, diethylaminoethyl 5-(2,4-difluorophenyl)acetylsalicylate.5-(2,4-difluorophenyl)acetylsalicylic acid salt]","blood glucose, Average (Week 2-5)",[4],8.3 ± 2.1 mmol/L
same,"blood glucose, Day 1",[4],16.9 ± 2.8 mmol/L
same,"blood glucose, Average (Week 2-5)",[5],5.7 ± 1.2 mmol/L
same,"blood glucose, Day 1",[5],5.6 ± 1.5 mmol/L
same,"Cholesterol (total), Day 1",[6],6.8 ± 0.4 mmol/L
same,"Cholesterol (total), Week 5",[6],5.0 ± 0.2 mmol/L
same,"Triglycerides, Day 1",[6],4.4 ± 0.4 mmol/L
same,"Triglycerides, Week 5",[6],2.2 ± 0.4 mmol/L
same,"blood glucose, Day 1",[6],14.5 ± 2.7 mmol/L
same,"blood glucose, Week 5",[6],8.4 ± 2.1 mmol/L
same,"blood glucose, Baseline",[7],19.4 ± 3.1 mmol/L
same,"blood glucose, Average",[7],9.7 ± 1.4 mmol/L
